Data: patent US10870627B2, “Salt of quinazoline derivative, preparation method therefor and application thereof” (SHANGHAI PHARMACEUTICALS HOLDING CO., LTD., priority 2016, dated 2020)

Key:
[1] = Solid-state stability test; format: physicochemical
Experimental: An appropriate amount of the drugs were placed in the surface dish, spread to a thickness of 3-5 mm, and exposed in high temperature, high temperature and high humidity, illumination and oxidation conditions for 10 days respectively, and the solid-state characterization was performed. The purity and the number of impurities 0.05%) of the samples for testing were determined by HPLC, and compared with the samples on day 0. The exposure conditions are:
High temperature (an oven with T=60° C.);
Illumination (25° C., a 4500±500 lx light incubator);
Oxidation (25° C., a closed container containing urea hydrogen peroxide).

Solution stability test = format: physicochemical
Experimental: About 15 mg of the sample was weighed accurately, dissolved with 25 mL of the test solvent (10% aqueous acetone solution, pH=4.0 B-R buffer solution, SGF, SIF) via ultrasound for 20 minutes. The solution was divided into four portions and placed in the clear glass vials, followed by sealing. The samples were exposed in different environments and sampled on day 0 and day 5. The purity of each sample was determined by HPLC, and the number of impurities greater than 0.05% was calculated and compared with the samples on day 0. The exposure environments are:
Room temperature and light-proof test, 25° C.; […]
Illumination experiment (4500±500 lx), 25° C.;
Oxidation experiment (3% v/v hydrogen peroxide), 25° C.

[2] = Water solubility at 20° C. determined by HPLC; format: physicochemical
[3] = Comparison of absorption in rats after intragastric administration of free base and salt (plasma pharmacokinetics); format: in vivo, SD rats; settings: for AUC (0-t) / MRT (0-T) / Tmax / t1/2 / Cmax: SD rats, 20 μmol/kg, intragastric administration, plasma
Experimental: The blood sample was centrifuged at 8000 RPM for 5 minutes, followed by the isolation of the upper plasma. […] 200 μL of the supernatant was taken and centrifuged again for 10 minutes. 50 μL of the supernatant was injected in a 96-well plate. The plasma drug concentration was determined by LC/MS/MS, and the corresponding pharmacokinetic parameters were calculated.

[4] = Dynamic vapor sorption (DVS), isothermal absorption analysis; format: physicochemical
Experimental: In the present invention, according to the common knowledge in the art, the amount of water absorption obtained from the dynamic vapor sorption (DVS) pattern is expressed in percentage by weight.
The isothermal absorption analysis (DVS) data was collected from TA Instruments Q5000 TGA. The software for instrument control was Thermal Advantage and software for analysis was Universal Analysis. 1-10 mg of the sample was generally placed in a platinum crucible, and the weight change of the sample during the relative humidity changing from 20% to 80% was recorded by the TA software. Depending on the specifics of the sample, different steps of sample adsorption and desorption were also involved.

[5] = Solubility determined by visual inspection; format: physicochemical
Experimental: The solubility was determined as follows: a certain amount of the sample was weighed and the solvent was added thereto in portions with stirring or ultrasonication to accelerate dissolution; the amount of the consumed solvent was recorded once the sample was dissolved. […] A certain volume of the solution was taken, followed by filtration, concentration, dissolved with a certain volume of other suitable solvents and subjected to HPLC measurement to obtain accurate data of the solubility.

[6] = 10 d, High temperature (oven, T=60° C.)
[7] = 10 d, High temperature and high humidity (40° C., 75% relative humidity)
[8] = 10 d, Illumination (25° C., 4500±500 lx)
[9] = 10 d, Oxidation (25° C., closed container with urea hydrogen peroxide)
[10] = 10% aqueous acetone solution, 0 d, impurities greater than 0.05%
[11] = 10% aqueous acetone solution, 5 d, High temperature
[12] = 10% aqueous acetone solution, 5 d, High temperature and high humidity
[13] = 10% aqueous acetone solution, 5 d, Illumination (4500±500 lx, 25° C.)
[14] = 10% aqueous acetone solution, 5 d, Oxidation (3% v/v hydrogen peroxide, 25° C.)
[15] = B-R Buffer solution (pH=4.0), 0 d, impurities greater than 0.05%
[16] = B-R Buffer solution (pH=4.0), 5 d, High temperature
[17] = B-R Buffer solution (pH=4.0), 5 d, High temperature and high humidity
[18] = B-R Buffer solution (pH=4.0), 5 d, Illumination (4500±500 lx, 25° C.)
[19] = B-R Buffer solution (pH=4.0), 5 d, Oxidation (3% v/v hydrogen peroxide, 25° C.)
[20] = SGF, 0 d, impurities greater than 0.05%
[21] = SGF, 5 d, High temperature and high humidity
[22] = SGF, 5 d, Illumination (4500±500 lx, 25° C.)
[23] = SGF, 5 d, Oxidation (3% v/v hydrogen peroxide, 25° C.)
[24] = SIF, 0 d, impurities greater than 0.05%
[25] = SIF, 5 d, High temperature and high humidity
[26] = SIF, 5 d, Illumination (4500±500 lx, 25° C.)
[27] = SIF, 5 d, Oxidation (3% v/v hydrogen peroxide, 25° C.)

## C=C(F)C(=O)Nc1cc2c(Nc3ccc(F)c(Cl)c3)ncnc2cc1OCCCN1CCOCC1.O=S(=O)(O)c1ccccc1
[1]; 0 d
  Number of impurities: 2
[1]; [6]
  Number of impurities: 2
[1]; [7]
  Number of impurities: 2
[1]; [8]
  Number of impurities: 2
[1]; [9]
  Number of impurities: 2
Solution stability test; 10% aqueous acetone solution, 0 d
  Purity: 98.2%
Solution stability test; [10]
  Number of impurities: 1
Solution stability test; [11]
  Number of impurities: 1
  Purity: 97.9%
Solution stability test; [12]
  Number of impurities: 3
Solution stability test; [13]
  Number of impurities: 1
  Purity: 97.6%
Solution stability test; [14]
  Number of impurities: 7
  Purity: 60.8%
Solution stability test; [15]
  Number of impurities: 2
Solution stability test; [16]
  Number of impurities: 3
  Purity: 97.2%
Solution stability test; [17]
  Number of impurities: 3
  Purity: 97.2%
Solution stability test; [18]
  Number of impurities: 1
Solution stability test; [19]
  Number of impurities: 12
  Purity: 38.1%
Solution stability test; [20]
  Number of impurities: 1
Solution stability test; SGF, 5 d, High temperature
  Number of impurities: 2
Solution stability test; [21]
  Number of impurities: 2
  Purity: 94.4%
Solution stability test; [22]
  Number of impurities: 1
Solution stability test; [23]
  Number of impurities: 3
  Purity: 81.7%
Solution stability test; SIF, 0 d
  Purity: 80.2%
Solution stability test; [24]
  Number of impurities: 2
Solution stability test; SIF, 5 d, High temperature
  Number of impurities: 1
  Purity: 58.7%
Solution stability test; [25]
  Number of impurities: 8
  Purity: 42.0%
Solution stability test; [26]
  Number of impurities: 9
  Purity: 10.0%
Solution stability test; [27]
  Purity: Complete
[2]
  water solubility at 20° C. determined by HPLC: 60.4 µg/mL
[3]
  AUC (0-t): 972.26 ± 291.88 µM·min
  MRT (0-T): 357.13 ± 15.20 min
  Tmax: 80.00 ± 34.64 min
  t1/2: 305.38 ± 127.64 min
[3]; listed as monobenzenesulfonate
  Cmax: 2300 ± 470 nM
[4]
  hygroscopicity, in words: not easy to absorb moisture

## C=C(F)C(=O)Nc1cc2c(Nc3ccc(F)c(Cl)c3)ncnc2cc1OCCCN1CCOCC1.O=S(=O)(O)CCS(=O)(=O)O
[1]; 0 d
  Number of impurities: 2
  Purity: 99.0%
[1]; [6]
  Number of impurities: 2
  Purity: 99.0%
[1]; [7]
  Number of impurities: 2
  Purity: 99.0%
[1]; [8]
  Number of impurities: 2
  Purity: 99.0%
[1]; [9]
  Number of impurities: 2
  Purity: 99.0%
Solution stability test; [10]
  Number of impurities: 1
Solution stability test; [11]
  Number of impurities: 1
  Purity: 99.0%
Solution stability test; [12]
  Number of impurities: 3
  Purity: 98.1%
Solution stability test; [13]
  Number of impurities: 1
Solution stability test; [14]
  Number of impurities: 7
  Purity: 70.8%
Solution stability test; B-R Buffer solution (pH=4.0), 0 d
  Purity: 99.0%
Solution stability test; [15]
  Number of impurities: 1
Solution stability test; [16]
  Number of impurities: 1
  Purity: 99.0%
Solution stability test; [17]
  Number of impurities: 3
  Purity: 97.7%
Solution stability test; [18]
  Number of impurities: 1
  Purity: 99.0%
Solution stability test; [19]
  Number of impurities: 15
  Purity: 44.0%
Solution stability test; SGF, 0 d
  Purity: 99.0%
Solution stability test; [20]
  Number of impurities: 1
Solution stability test; SGF, 5 d, High temperature
  Number of impurities: 2
Solution stability test; [21]
  Number of impurities: 2
  Purity: 94.5%
Solution stability test; [22]
  Number of impurities: 2
Solution stability test; [23]
  Number of impurities: 3
Solution stability test; SIF, 0 d
  Purity: 74.8%
Solution stability test; [24]
  Number of impurities: 2
Solution stability test; SIF, 5 d, High temperature
  Number of impurities: 1
  Purity: 50.0%
Solution stability test; [25]
  Number of impurities: 6
  Purity: 36.5%
Solution stability test; [26]
  Number of impurities: 13
  Purity: 25.2%
Solution stability test; [27]
  Number of impurities: 7
  Purity: 30.8%
[5]; room temperature
  visual solubility in water: 1 to 2 mg/mL
[3]
  AUC (0-t): 195.56 ± 84.51 µM·min
  MRT (0-T): 319.90 ± 59.62 min
  Tmax: 80.00 ± 17.32 min
  t1/2: 224.64 ± 54.99 min
[3]; listed as monoethanedisulfonate
  Cmax: 390 ± 160 nM
[3]; rats, oral, same dose, free base and 6 salts
  AUC (0-t) and Cmax, comparison in words: relatively low
[4]
  hygroscopicity, in words: not easy to absorb moisture

## C=C(F)C(=O)Nc1cc2c(Nc3ccc(F)c(Cl)c3)ncnc2cc1OCCCN1CCOCC1.O=S(=O)(O)O
[5]; 20° C.
  visual solubility in water: 1 to 2 mg/mL
[3]
  AUC (0-t): 591.00 ± 29.76 µM·min
  MRT (0-T): 343.51 ± 42.43 min
  Tmax: 70.00 ± 17.32 min
  t1/2: 230.81 ± 162.24 min
[3]; listed as monosulfate
  Cmax: 1660 ± 270 nM
[4]
  hygroscopicity, in words: fairly hygroscopic

## C=C(F)C(=O)Nc1cc2c(Nc3ccc(F)c(Cl)c3)ncnc2cc1OCCCN1CCOCC1.O=S(=O)(O)O.O=S(=O)(O)O [disulfate of the quinazoline derivative]
[5]; 20° C.
  visual solubility in water: 0.91 to 1 mg/mL
